Test results published in PMC6155812, “Synthesis, Anti-Breast Cancer Activity, and Molecular Docking Study of a New Group of Acetylenic Quinolinesulfonamide Derivatives” (Molecules : A Journal of Synthetic Chemistry and Natural …, 2017).
Read-outs that look alike come from different tables or passages of the source.

Tests used:
[1] = tested on: MCF-7 (human adenocarcinoma) cells; assay: WST-1 antiproliferative assay, MCF-7; format: cell-based; details: 3–4 days, 0.5–250 µM, neg = negative in concentration used; for IC50: read-out: IC50 ± SD, MCF-7
From the text: (§1) Encouraged by promising results in the field of antiproliferative derivatives of acetylenic sulfanylquinoline derivatives, in this study the decision was made to combine the biological potentials of sulfamoylquinoline and alkynyl moieties, with the intention of obtaining compounds with better activity against breast cancer cell lines. The SAR analyses of the acetylenic sufamoylquinoline were based on the cell growth inhibition potencies on the MCF-7 (human adenocarcinoma), MDA-MB-231 and T-47D (human ductal carcinoma) cells using the WST-1 assay. The results from the in vitro cytotoxicity assay are expressed as the concentration of compound (µM) that inhibited the proliferation of 50% of the tumor cells, compared to the control untreated cells (IC50). Cisplatin was used as a positive control to induce cell death.
(§2) The cell lines (MCF-7, MDA-MB-231, and nontumor HFF-1) were cultured and kept in Dubecco’s modified Eagle medium (DMEM) supplemented with 10% fetal bovine serum (FBS) 1.000 IU·mL^−1 penicillin and 10 mg·m^−1·mL^−1 streptomycin in atmosphere with 5% CO2 at 37 °C. The cells were seeded using a series of standard 96-well plates (Corning). Test compounds were prepared at a concentration of 5.0 mM dimethyl sulfoxide (DMSO). Freshly prepared dilutions of the test compounds in a culture medium at a concentration of 0.5–250 µM were added to the microtiter plates and the cells were grown for 3–4 days. Solvent control (DMSO) was included to check its potential inhibitory activity at the concentration used. After incubation, the cell growth rate was evaluated by performing a WST-1 assay. The amount of formazan produced was measured at 450 nm. Expermentally determined absorbance values were transformed into the cell percentage of growth as described previously. Each test point was performed in triplicate for each tested compound cocentration. The results were statistically analyzed using PraphPad Prism 6 software (Graphpad Software, Inc., La Jolla, CA, USA).

[2] = tested on: T47D (human ductal carcinoma) cells; assay: WST-1 antiproliferative assay, T47D; format: cell-based; details: WST-1 assay, 3–4 days, 0.5–250 µM, neg = negative in concentration used; for IC50: read-out: IC50 ± SD, T47D
From the text: as §1, §2

MDA-MB-231 cells = assay: WST-1 antiproliferative assay, MDA-MB-231; format: cell-based, human; details: 3–4 days, 0.5–250 µM, neg = negative in concentration used, read-out: IC50 ± SD, MDA-MB-231
From the text: as §1, §2

HFF-1 normal fibroblasts = assay: WST-1 cytotoxicity assay, normal fibroblasts HFF-1; format: cell-based, human; details: 3–4 days, 0.5–250 µM, neg = negative in concentration used; for IC50: read-out: IC50 ± SD, HFF-1
From the text: as §1, §2

[3] = Homo sapiens, MCF7, WST-1 assay
[4] = Homo sapiens, MDA-MB-231, WST-1 assay
[5] = Homo sapiens, HFF-1, WST-1 assay

Compound | IC50 [1, 3] | IC50 ± SD, T47D [2] | IC50 (MDA-MB-231 cells; [4]) | IC50 ± SD, HFF-1 (HFF-1 normal fibroblasts; WST-1 assay) | melting point | IC50 ([2]; Homo sapiens, T47D) | IC50 (HFF-1 normal fibroblasts; [5]) | IC50 (MDA-MB-231 cells; WST-1 assay) | IC50 ± SD, MCF-7 ([1]; WST-1 assay) | IC50 ([2]; listed as 4-(3-propynylthio)-7-[N-methyl-N-(3-propynyl)sulfamoyl]quinoline) | IC50 [2] | IC50 ([1]; WST-1 assay) | IC50 (HFF-1 normal fibroblasts; WST-1 assay)
C#CCN(C)S(=O)(=O)c1cc2ccccc2nc1Cl [2a, 2-Chloro-3-[N-methyl-N-(3-propynyl)sulfamoyl]quinoline] | 351 ± 6.32 µM | neg ^1 | 140 ± 1.98 µM | neg | 110 to 111 °C |  |  |  |  |  |  |  | 
C#CCN(C)S(=O)(=O)c1ccc2nc(Cl)ccc2c1 [2b, 2-Chloro-6-[N-methyl-N-(3-propynyl)sulfamoyl]quinoline] | 22.9 ± 1.45 µM |  | 0.24 ± 0.01 µM | neg | 140 to 141 °C | 0.3 ± 0.03 µM |  |  |  |  |  |  | 
C#CCN(C)S(=O)(=O)c1cnc2ccccc2c1Cl [2c, 4-Chloro-3-[N-methyl-N-(3-propynyl)sulfamoyl]quinoline] |  |  | 0.27 ± 0.02 µM |  | 120 to 121 °C | 2.24 ± 0.11 µM | 85.4 ± 1.6 µM |  |  |  |  |  | 
C#CCN(C)S(=O)(=O)c1ccc2nccc(Cl)c2c1 [2d, 4-Chloro-6-[N-methyl-N-(3-propynyl)sulfamoyl]quinoline] | 233.8 ± 1.56 µM |  | 180 ± 2.35 µM |  | 124 to 125 °C | 292 ± 2.34 µM | 425.2 ± 1.46 µM |  |  |  |  |  | 
C#CCN(C)S(=O)(=O)c1ccc2c(Cl)ccnc2c1 [2e, 4-Chloro-7-[N-methyl-N-(3-propynyl)sulfamoyl]quinoline] |  |  | 59.3 ± 1.56 µM | neg | 119 to 120 °C | 26.8 ± 0.67 µM |  |  |  |  |  |  | 
C#CCN(C)S(=O)(=O)c1cccc2c(Cl)ccnc12 [2f, 4-Chloro-8-[N-methyl-N-(3-propynyl)sulfamoyl]quinoline] | 61.2 ± 1.65 µM |  | 204 ± 3.1 µM |  | 130 to 133 °C | 295.6 ± 2.56 µM | 153 ± 3 µM |  |  |  |  |  | 
C#CCSc1nc2ccccc2cc1S(=O)(=O)N(C)CC#C [5a, 2-(3-Propynylthio)-3-[N-methyl-N-(3-propynyl)sulfamoyl]quinoline] | 288 ± 3.45 µM | neg | 11.8 ± 0.87 µM | neg | 100 to 101 °C |  |  |  |  |  |  |  | 
C#CCSc1ccc2cc(S(=O)(=O)N(C)CC#C)ccc2n1 [5b, 2-(3-Propynylthio)-6-[N-methyl-N-(3-propynyl)sulfamoyl]quinoline] | 18.4 ± 0.98 µM |  |  | neg | 164 to 165 °C | 182 ± 3.23 µM |  | 0.27 ± 0.03 µM |  |  |  |  | 
C#CCSc1c(S(=O)(=O)N(C)CC#C)cnc2ccccc12 [5c, 4-(3-Propynylthio)-3-[N-methyl-N-(3-propynyl)sulfamoyl]quinoline] |  |  | 116 ± 2.13 µM | neg | 101 to 102 °C | 205 ± 6.02 µM |  |  | neg |  |  |  | 
C#CCSc1ccnc2ccc(S(=O)(=O)N(C)CC#C)cc12 [5d, 4-(3-Propynylthio)-6-[N-methyl-N-(3-propynyl)sulfamoyl]quinoline] | 236.8 ± 2.34 µM | neg | 202 ± 5.46 µM | neg | 139 to 140 °C |  |  |  |  |  |  |  | 
C#CCSc1ccnc2cc(S(=O)(=O)N(C)CC#C)ccc12 [5e, 4-(3-Propynylthio)-7-[N-methyl-N-(3-propynyl)sulfamoyl]quinoline] | 0.27 ± 0.03 µM |  | 7.12 ± 0.78 µM |  | 113 to 114 °C |  | 276.1 ± 2.6 µM |  |  | 0.07 µM | 0.21 ± 0.01 µM |  | 
C#CCSc1ccnc2c(S(=O)(=O)N(C)CC#C)cccc12 [5f, 4-(3-Propynylthio)-8-[N-methyl-N-(3-propynyl)sulfamoyl]quinoline] | 13.09 ± 0.11 µM |  | 21.2 ± 0.96 µM |  | 119 to 120 °C | 0.27 ± 0.03 µM | 366.1 ± 1.46 µM |  |  |  |  |  | 
C#CC[Se]c1nc2ccccc2cc1S(=O)(=O)N(C)CC#C [6a, 2-(3-Propynylseleno)-3-[N-methyl-N-(3-propynyl)sulfamoyl]quinoline] | 237.9 ± 2.11 µM |  | 0.42 ± 0.01 µM | neg | 109 to 110 °C | 146 ± 1.98 µM |  |  |  |  |  |  | 
C#CC[Se]c1ccc2cc(S(=O)(=O)N(C)CC#C)ccc2n1 [6b, 2-(3-Propynylseleno)-6-[N-methyl-N-(3-propynyl)sulfamoyl]quinoline] | 22.72 ± 0.12 µM |  |  |  | 179 to 180 °C | 10.6 ± 0.15 µM | 92.9 ± 2 µM | 1.32 ± 0.12 µM |  |  |  |  | 
C#CC[Se]c1c(S(=O)(=O)N(C)CC#C)cnc2ccccc12 [6c, 4-(3-Propynylseleno)-3-[N-methyl-N-(3-propynyl)sulfamoyl]quinoline] | 113 µM |  | 17.6 ± 0.87 µM | neg | 122 to 123 °C | 313 ± 7.98 µM |  |  |  |  |  |  | 
C#CC[Se]c1ccnc2ccc(S(=O)(=O)N(C)CC#C)cc12 [6d, 4-(3-Propynylseleno)-6-[N-methyl-N-(3-propynyl)sulfamoyl]quinoline] | 259 ± 5.45 µM | neg | 0.68 ± 0.09 µM |  | 139 to 140 °C |  | 331 ± 4 µM |  |  |  |  |  | 
C#CC[Se]c1ccnc2cc(S(=O)(=O)N(C)CC#C)ccc12 [6e, 4-(3-Propynylseleno)-7-[N-methyl-N-(3-propynyl)sulfamoyl]quinoline] | 109 ± 2.11 µM |  | 23.5 ± 1.02 µM | neg | 108 to 109 °C | 160 ± 3.23 µM |  |  |  |  |  |  | 
C#CC[Se]c1ccnc2c(S(=O)(=O)N(C)CC#C)cccc12 [6f, 4-(3-Propynylseleno)-8-[N-methyl-N-(3-propynyl)sulfamoyl]quinoline] | 0.26 ± 0.01 µM |  | 64.5 ± 1.98 µM |  | 111 to 115 °C | 55.6 ± 1.78 µM | 317 ± 5.46 µM |  |  |  |  |  | 
N.N.[Cl][Pt][Cl] [Cisplatin, reference compound] |  |  |  |  |  |  |  | 17.6 ± 0.31 µM |  |  | 30.3 ± 0.34 µM | 77.76 ± 0.76 µM | 7.2 ± 0.6 µM
C#CCSc1ccc2ncc(SCC#C)cc2c1 [compound 11, 3,6-Di(3-propynylthio)quinoline] | 7.36 ± 0.45 µM |  | 8.73 ± 0.78 µM |  | 97 to 98 °C | 127 ± 2.01 µM | 176 ± 3 µM |  |  |  |  |  | 
O=S(=O)(Cl)c1cnc2ccc(Cl)cc2c1 [compound 13, 6-chloro-3-chlorosulfonylquinoline] |  |  |  |  | 109 to 110 °C |  |  |  |  |  |  |  | 
